{"source": "paper PMC3532132", "about": "“High-resolution structures of AidH complexes provide insights into a novel catalytic mechanism for N-acyl homoserine lactonase” (Acta Crystallographica Section D: Biological Crystallography, 2012)", "target": "T1, AidH (Ochrobactrum sp. T63, UniProt D2J2T6)", "T1 construct": "full length (251 residues), pET22b(+), C-terminal His tag, E. coli BL21(DE3); monomer in solution; alpha/beta-hydrolase, metal-independent", "T1 sequence (D2J2T6 1-271)": "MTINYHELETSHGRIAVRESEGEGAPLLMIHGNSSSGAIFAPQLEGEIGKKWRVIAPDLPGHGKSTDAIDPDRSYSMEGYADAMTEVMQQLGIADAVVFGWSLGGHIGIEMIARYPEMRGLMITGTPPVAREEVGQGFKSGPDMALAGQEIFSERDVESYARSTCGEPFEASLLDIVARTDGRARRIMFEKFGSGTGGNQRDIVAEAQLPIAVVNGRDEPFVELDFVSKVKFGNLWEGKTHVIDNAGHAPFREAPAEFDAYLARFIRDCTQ", "experiment": "X-ray crystal structure, […] A, soaked crystal", "type": "binding", "details": "product of C4-HSL hydrolysis; active site, hydrogen bonds to Ser102, His248, Tyr160"}
{"smiles": "CCCC(=O)N[C@@H](CCO)C(=O)O", "note": "[C4-HS, N-butanoyl homoserine]", "values": [{"measurement": "X-ray crystal structure, 1.09 A, soaked crystal", "result": "crystal structure of wild-type AidH complexed with the product C4-HS (AidH–C4-HS) was determined"}]}
